Laboratory results reported in patent US7939275B2, “Methods for detection of chlamydia in samples” (priority 2005, dated 2011).
Like-named read-outs stand apart in the source and are kept apart here.

Experiments:
anti-Chlamydia abzymes [1] = format: biochemical, human
Procedure: (§1) For chemical inactivation, a diluent solution was divided into two portions. In one portion, an abzyme inhibitor was added. The following abzyme inhibitors were used DMSO, 0.1-10%; sodium azide, 10^−5-10^−3M; catechins, 10^−6-10^−3M; ketek, […]; lactobacilli culture, 1 μM-1 mM; ascorbic acid, 10^−4-10^−3M; acetyl salicylic acid, 10^−4-10^−3M.
(§2) The serum sample was split in two aliquots and one aliquot was diluted by solution containing the abzyme inhibitor, the second aliquot was diluted by the control solution. The aliquots were then tested in the same fashion.
Lipid peroxidation was assessed as a level of MDA concentration which was measured by spectrophotometric method [Draper, H. H. et al Free Radic. Biol. Med. (1993) 15, 353]. This method is based on the formation of a coloured product when malondialdehyde reacts with thiobarbituric acid. Briefly, the level of abzymes in a sample was determined as follows: Samples of sera were diluted 1:1 by 0.05M acetate buffer pH 4.0 to make the final pH of these samples between 5.6-5.8. 990 μl of the diluted serum was mixed with 10 μl of the commercial live ovine Chlamydia vaccine (Intervet). Samples were incubated overnight (12-16 hours) at 37° C. 250 μl of 40% trichloroacetic acid and 250 μl of 1 mM 2-thiobarbituric acid was added to each sample. All samples were placed in a water bath and boiled for 30 minutes. Samples were cooled down and centrifuged at 3,000 g for 10 minutes. The supernatants were collected and their absorption measured at λ 525 nm to determine the concentration of malondialdehydes (MDA), which are products of lipid peroxidation.

anti-Chlamydia abzymes [2] = format: biochemical, human; remark: listed apart in the source
Procedure: as §1, §2
ELISA assays were performed using Medac materials and reagents, which were used in accordance with the manufacturers instructions.
Briefly, serum samples from patients were treated as described above. 50 μl of sample diluent was pipetted into microtitre well Al as blank, and 50 μl of the negative control, Positive Control and the diluted patients' samples were pipetted into other microtitre wells. The microplate wells were incubated for 60 min (±5 min) at 37° C. (±1° C.) in a humid chamber and then washed three times with 200 μl wash buffer per well. 50 μl of Conjugate was then added to each well and the microplate wells incubated again for 60 min (±5 min) at 37° C. (±1° C.) in a humid chamber and then washed. 50 μl of TMB-Substrate, was added to each well and the microplate wells incubated for 30 min (±2 min) at 37° C. (±1° C.) in a humid chamber. The reaction was stopped by adding 100 μl of Stop Solution, to each well.
Photometric reading was performed using a plate reader at 450 nm (ref. 620-650 nm) within 15 min after adding the Stop Solution.
To calculate the results, the OD value of the blank (well A1) was subtracted from all other OD values. […] Cut-off=mean OD value of the Negative Control+0.380. Grey zone=Cut-off±10%

[3] = patient serum, abzyme inhibitor added to diluent

| Compound | Inhibition of abzymes ability to cause: Serum lipid peroxidation, in MDA assay (anti-Chlamydia abzymes [1]) | Inhibition of abzymes ability to cause: Damage of Chlamydia pneumoniae antigen, in ELISA (anti-Chlamydia abzymes [2]) | Inhibition of abzymes ability to cause: Serum lipid peroxidation, in MDA assay (anti-Chlamydia abzymes [1]; [3]) | Inhibition of abzymes ability to cause: Damage of Chlamydia pneumoniae antigen, in ELISA (anti-Chlamydia abzymes [2]; [3]) |
| --- | --- | --- | --- | --- |
| Cc1c(O)cc2c(c1C)O[C@](C)(CCC[C@H](C)CCC[C@H](C)CCCC(C)C)CC2 [(+) y-Tocopherol] | Negative | Negative | – | – |
| Cc1c(C)c2c(c(C)c1O)CC[C@@](C)(CCC[C@H](C)CCC[C@H](C)CCCC(C)C)O2 [(+) α-Tocopherol] | – | – | Negative | Negative |
| CC(=O)Oc1ccccc1C(=O)O [Acetyl salicylic acid] | Positive | Positive | – | – |
| O=C1O[C@H]([C@@H](O)CO)C(O)=C1O [Ascorbic acid] | – | – | Positive | Positive |
| O=C(O)c1ccccc1 [Benzoic acid] | Negative | Negative | – | – |
| OC[C@@H](O)[C@@H](O)[C@H](O)[C@H](O)CO [D-Mannitol] | – | – | Negative | Negative |
| C[S+](C)[O-] [DMSO] | – | – | Positive | Positive |
| O=C(O)CN(CCN(CC(=O)O)CC(=O)O)CC(=O)O [EDTA] | Positive | Positive | – | – |
| O=C(O)CN(CCOCCOCCN(CC(=O)O)CC(=O)O)CC(=O)O [EGTA] | – | – | – | Positive |
| CC(C)=CCC/C(C)=C/C=C/C(C)=C/C=C/C(C)=C/C=C/C=C(C)/C=C/C=C(C)/C=C/C=C(\C)CCC=C(C)C [Lycopene] | – | – | Negative | Negative |
| CC[C@H]1OC(=O)[C@H](C)C(=O)[C@H](C)[C@@H](O[C@@H]2O[C@H](C)C[C@H](N(C)C)[C@H]2O)[C@](C)(OC)C[C@@H](C)C(=O)[C@H](C)[C@H]2N(CCCCn3cnc(-c4cccnc4)c3)C(=O)O[C@]12C [Telithromycin, Ketek, Telithromycin] | – | – | Positive | Positive |
| CC1=C(/C=C/C(C)=C/C=C/C(C)=C/C=C/C=C(C)/C=C/C=C(C)/C=C/C2=C(C)CCCC2(C)C)C(C)(C)CCC1 [β-Carotene] | Negative | Negative | – | – |
| (+) Catechin gallate | – | – | Positive | Positive |
| Haemoglobin | Positive | Positive | – | – |
| PMS | Negative | Negative | – | – |
